Measurements: patent US8691991B2 (priority 2004, dated 2014)
pIC50: −log10 of the molar value.

What follows are compounds tested on Pseudotyped HIV vector (assay: Pseudotyped HIV vector expressing luciferase reporter assay). Conditions: Human immunodeficiency virus 1.
Format: cell-based
Protocol: Pseudotyped HIV Vector Expressing Luciferase Reporter Assay
Expression of luciferase reporter following viral integration was performed essentially as described in Jármy, G. et al., J. Medical Virology, 64:223-231, 2001.

`O=C(NCCOCCO)c1c(O)c2ncc(Cc3ccc(F)cc3)cc2[nH]c1=O` [Example 86, 7-[(4-Fluorophenyl)methyl]-4-hydroxy-N-{2-[(2-hydroxyethyl)oxy]ethyl}-2-oxo-1,2-dihydro-1,5-naphthyridine-3-carboxamide] and `O=C(NCCCN1CCCC1=O)c1c(O)c2ncc(Cc3ccc(F)cc3)cc2[nH]c1=O` [Example 28] cannot be ordered by pIC50: over 8.00 for the first, over 8.00 for the second.

First: O=C(NCCN1CCOCC1)c1c(O)c2ncc(Cc3ccc(F)cc3)cc2[nH]c1=O [Example 36, 7-[(4-Fluorophenyl)methyl]-4-hydroxy-N-[2-(4-morpholinyl)ethyl]-2-oxo-1,2-dihydro-1,5-naphthyridine-3-carboxamide]
Second: O=C(NCCCN1CCOCC1)c1c(O)c2ncc(Cc3ccc(F)cc3)cc2n(CC(=O)N2CCOCC2)c1=O [Example 93, 7-[(4-Fluorophenyl)methyl]-4-hydroxy-1-[2-(4-morpholinyl)-2-oxoethyl]-N-[3-(4-morpholinyl)propyl]-2-oxo-1,2-dihydro-1,5-naphthyridine-3-carboxamide]
The pIC50 of the first is higher: over 8.00 for the first, 7.60 to 8.00 for the second.

`COCCNC(=O)c1c(O)c2ncc(Cc3ccccc3)cc2n(Cc2ccc(S(C)(=O)=O)cc2)c1=O` [Example 45, 7-Benzyl-4-hydroxy-N-(2-methoxyethyl)-1-[4-(methylsulfonyl)benzyl]-2-oxo-1,2-dihydro-1,5-naphthyridine-3-carboxamide] and `COCCNC(=O)c1c(O)c2ncc(Cc3ccc(F)cc3)cc2n(Cc2ccc(S(C)(=O)=O)cc2)c1=O` [Example 64, 7-(4-Fluorobenzyl)-4-hydroxy-N-(2-methoxyethyl)-1-[4-(methylsulfonyl)benzyl]-2-oxo-1,2-dihydro-1,5-naphthyridine-3-carboxamide] cannot be ordered by pIC50: over 8.00 for the first, over 8.00 for the second.

`COCCNC(=O)c1c(O)c2ncc(Cc3ccc(F)cc3)cc2n(C)c1=O` [Example 98, 7-[(4-Fluorophenyl)methyl]-4-hydroxy-1-methyl-N-[2-(methyloxy)ethyl]-2-oxo-1,2-dihydro-1,5-naphthyridine-3-carboxamide] and `COCCNC(=O)c1c(O)c2ncc(Cc3ccc(F)cc3)cc2n(CC(=O)N(C)CCOC)c1=O` [Example 104, 7-[(4-Fluorophenyl)methyl]-4-hydroxy-1-(2-{methyl[2-(methyloxy)ethyl]amino}-2-oxoethyl)-N-[2-(methyloxy)ethyl]-2-oxo-1,2-dihydro-1,5-naphthyridine-3-carboxamide] cannot be ordered by pIC50: over 8.00 for the first, over 8.00 for the second.

`Cn1c(=O)c(C(=O)NCCCN2CCCC2=O)c(O)c2ncc(Cc3ccc(F)cc3)cc21` [Example 99, 7-[(4-Fluorophenyl)methyl]-4-hydroxy-1-methyl-2-oxo-N-[3-(2-oxo-1-pyrrolidinyl)propyl]-1,2-dihydro-1,5-naphthyridine-3-carboxamide] and `C[C@@H](O)CNC(=O)c1c(O)c2ncc(Cc3ccc(F)cc3)cc2n(CCN2CCCC2=O)c1=O` [Example 429, 7-(4-Fluorobenzyl)-4-hydroxy-N-[(2R)-2-hydroxypropyl]-2-oxo-1-[2-(2-oxopyrrolidin-1-yl)ethyl]-1,2-dihydro-1,5-naphthyridine-3-carboxamide] cannot be ordered by pIC50: over 8.00 for the first, over 8.00 for the second.

`O=C(NCCO)c1c(O)c2ncc(Cc3ccc(F)cc3)cc2n(-c2ccc(F)cc2)c1=O` [Example 200, 1-(4-Fluorophenyl)-7-[(4-fluorophenyl)methyl]-4-hydroxy-N-(2-hydroxyethyl)-2-oxo-1,2-dihydro-1,5-naphthyridine-3-carboxamide] and `COCCN(C)C(=O)Cn1c(=O)c(C(=O)NC(C)CO)c(O)c2ncc(Cc3ccc(F)cc3)cc21` (racemic) [Example 105, (±)-7-[(4-Fluorophenyl)methyl]-4-hydroxy-N-[2-hydroxy-1-methylethyl]-1-(2-{methyl[2-(methyloxy)ethyl]amino}-2-oxoethyl)-2-oxo-1,2-dihydro-1,5-naphthyridine-3-carboxamide] cannot be ordered by pIC50: over 8.00 for the first, over 8.00 for the second.
